Assay results from patent US9193689B2, “3-aryl-5-substituted-isoquinolin-1-one compounds and their therapeutic use” (INSTITUTE OF CANCER RESEARCH: ROYAL CANCER HOSPITAL (THE), priority 2012, dated 2015).
Values joined by “and” are separate entries in the source; they are usually repeats but may differ in a detail not shown here. Equal values may be shown once. Read-outs that look alike come from different tables or passages of the source.

How the values were obtained:
[1] = target: TNKS1 (Homo sapiens, UniProt O95271); assay: TNKS1/PARP Biochemical Assay (TNKS1)
[2] = system: Wnt activity in DLD1-Wnt-Luc cells; assay: Wnt-Luciferase Reporter Assay
[3] = read-out: Wnt IC50, DLD1-Wnt-Luc cells

Row | Compound | IC50 [1] | IC50 [2, 3] | IC50 ([2]; read-out: Wnt IC50)
1 | CN1CCN(Cc2ccc(-c3cc4c(C5CC5)cccc4c(=O)[nH]3)cc2)CC1 [IQ-046] | < 500 nM | < 5000 nM | –
2 | CN(C)Cc1ccc(-c2cc3c(Br)cccc3c(=O)[nH]2)cc1 [IQ-033] | < 50 nM | < 5000 nM | –
3 | CN(CC1CCNCC1)C(=O)c1ccc(-c2cc3c(Cl)cccc3c(=O)[nH]2)cc1 [IQ-094] | < 50 nM | < 5000 nM | –
4 | Cc1cccc2c(=O)[nH]c(-c3cnc(N4CCN(C)CC4)nc3)cc12 [IQ-025, 5-Methyl-3-[2-(4-methyl-piperazin-1-yl)-pyrimidin-5-yl]-2H-isoquinolin-1-one] | 17 nM | – | 62 nM
5 | Cc1cc(F)cc2c(=O)[nH]c(-c3ccc(C(C)C(=O)N4CC(O)C4)cc3)cc12 (stereo not shown) [IQ-216] | < 50 nM | < 5000 nM | –
6 | CN1CCN(c2ccc(-c3cc4c(Cl)cccc4c(=O)[nH]3)cn2)CC1 [IQ-002] | 39 nM | – | 179 nM
7 | CCc1cccc2c(=O)[nH]c(-c3ccc(CN4CCNCC4)cc3)cc12 [IQ-081] | < 50 nM | < 5000 nM | –
8 | O=c1[nH]c(-c2ccc(CN3CCNCC3)cc2)cc2c(F)cccc12 [IQ-070] | < 50 nM | < 5000 nM | –
9 | CN1CCN(c2ccc(-c3cc4ccccc4c(=O)[nH]3)cn2)CC1 [REF-3, reference compound] | 24 nM | – | 742 nM
10 | Cc1ccc(F)c2c(=O)[nH]c(-c3cnc(C(=O)N4CCN(C)CC4)nc3)cc12 [IQ-225] | < 500 nM | < 5000 nM | –
11 | Cc1cccc2c(=O)[nH]c(-c3ccc(C(=O)N4CCOCC4)cc3F)cc12 [IQ-163] | < 500 nM | < 5000 nM | –
12 | CN(C)CCOc1ccc(-c2cc3c(Cl)cccc3c(=O)[nH]2)cc1 [IQ-128] | < 500 nM | < 5000 nM | –
13 | Cc1cccc2c(=O)[nH]c(-c3ccc(C(=O)N(C)CC4CCNCC4)cc3)cc12 [IQ-093, N-Methyl-4-(5-methyl-1-oxo-1,2-dihydro-isoquinolin-3-yl)-N-piperidin-4-ylmethyl-benzamide] | < 20 nM | < 5000 nM | –
14 | Cc1cccc2c(=O)[nH]c(-c3ccc(C(=O)N4CCN(C)CC4)nc3)cc12 [IQ-220] | 26 nM | – | 274 nM
15 | Cc1cccc2c(=O)[nH]c(-c3cnc(N4CCN(C(=O)C5CC5)CC4)nc3)cc12 [IQ-157, 3-[2-(4-Cyclopropanecarbonyl-piperazin-1-yl)-pyrimidin-5-yl]-5-methyl-2H-isoquinolin-1-one] | 51 nM | – | 41 nM
16 | O=c1[nH]c(-c2ccc(CN3CCNCC3)cc2)cc2c(Br)cccc12 [IQ-150] | < 500 nM | < 5000 nM | –
17 | Cc1cccc2c(=O)[nH]c(-c3ccc(CN4CCC5(CCNC5)C4)nc3)cc12 (stereo not shown) [IQ-160] | < 50 nM | < 5000 nM | –
18 | Cc1cccc2c(=O)[nH]c(-c3ccc(C(=O)N(CCO)CCO)cc3)cc12 [IQ-191, N,N-Bis-(2-hydroxy-ethyl)-4-(5-methyl-1-oxo-1,2-dihydro-isoquinolin-3-yl)-benzamide] | < 20 nM | < 5000 nM | –
19 | CN(C)CCOc1ccc(-c2cc3ccccc3c(=O)[nH]2)cc1 [REF-5, reference compound] | 17 nM | – | > 10000 nM
20 | CN(C)Cc1ccc(-c2cc3ccccc3c(=O)[nH]2)cc1 [REF-4, reference compound] | – | – | > 10000 nM
21 | Cc1cccc2c(=O)[nH]c(-c3ccc(C(=O)N4CCN(C)CC4)cc3F)cc12 [IQ-164] | < 500 nM | < 5000 nM | –
22 | CN(C)C1CCN(C(=O)c2ccc(-c3cc4c(Cl)cccc4c(=O)[nH]3)cc2)CC1 [IQ-103] | < 500 nM | < 5000 nM | –
23 | C#Cc1cccc2c(=O)[nH]c(-c3ccc(CN4CCNCC4)cc3)cc12 [IQ-230, 5-Ethynyl-3-(4-piperazin-1-ylmethylphenyl)-2H-isoquinolin-1-one] | < 500 nM | < 5000 nM | –
24 | Cc1cccc2c(=O)[nH]c(-c3ccc(C(C)(C)C(=O)N4CC(O)C4)cc3)cc12 [IQ-217] | < 50 nM | < 5000 nM | –
25 | Cc1cc(F)cc2c(=O)[nH]c(-c3ccc(CN4CCN(C)CC4)cc3)cc12 [IQ-080] | 29 nM | – | 42 nM

Row | Compound | IC50 [1] | IC50 [2, 3] | IC50 ([2]; read-out: Wnt IC50)
26 | CCc1cccc2c(=O)[nH]c(-c3ccc(CN4CCN(C(=O)OC(C)(C)C)CC4)cc3)cc12 [IQ-151, 4-[4-(5-Ethyl-1-oxo-1,2-dihydro-isoquinolin-3-yl)-benzyl]-piperazine-1-carboxylic acid tert-butyl ester] | – | < 5000 nM | –
27 | CN(C)Cc1ccc(-c2cc3c(F)cccc3c(=O)[nH]2)cc1 [IQ-032] | – | < 5000 nM | –
28 | CC(=O)N1CCN(Cc2ccc(-c3cc4c(C)cccc4c(=O)[nH]3)cc2)CC1 [IQ-055, 3-[4-(4-Acetyl-piperazin-1-ylmethyl)-phenyl]-5-methyl-2H-isoquinolin-1-one] | < 20 nM | – | –
29 | Cc1cccc2c(=O)[nH]c(-c3ccc(CN4CCN(C(=O)C5CC5)CC4)nc3)cc12 [IQ-162] | < 20 nM | – | –
30 | Cc1ccc(F)c2c(=O)[nH]c(-c3ccc(C(=O)N4CCN(C)CC4)cc3)cc12 [IQ-189] | < 20 nM | – | –
31 | CN1CCN(Cc2ccc(-c3cc4c(Cl)cccc4c(=O)[nH]3)cc2)C(=O)C1 [IQ-056] | < 50 nM | – | –
32 | Cc1cc(F)cc2c(=O)[nH]c(-c3ccc(C(C)(C)N4CC(O)C4)cc3)cc12 [IQ-185] | < 50 nM | – | –
33 | Cc1cccc2c(=O)[nH]c(-c3ccc(CN4CCNC(=O)C4)cc3F)cc12 [IQ-166] | < 500 nM | – | –
34 | Cc1cccc2c(=O)[nH]c(-c3ccc(CN4CCN(C)C(C)C4)cc3)cc12 (stereo not shown) [IQ-052] | < 50 nM | – | –
35 | Cc1cccc2c(=O)[nH]c(-c3ccc(CC(=O)N4CC(O)C4)cc3)cc12 [IQ-214] | < 20 nM | – | –
36 | CN1CCN(C(=O)c2ccc(-c3cc4c(F)ccc(F)c4c(=O)[nH]3)cc2)CC1 [IQ-226] | < 50 nM | – | –
37 | Cc1cc(F)cc2c(=O)[nH]c(-c3ccc(C(=O)N(C)C4CCN(C)C4)cc3)cc12 (single isomer, unassigned) [IQ-207-2] | < 50 nM | – | –
38 | CN(CC1CCN(C(=O)OC(C)(C)C)CC1)S(=O)(=O)c1ccc(-c2cc3c(Cl)cccc3c(=O)[nH]2)cc1 [IQ-114] | < 500 nM | – | –
39 | Cc1cc(F)cc2c(=O)[nH]c(-c3ccc(CC(=O)N4CC(O)C4)cc3)cc12 [IQ-215] | < 20 nM | – | –
40 | Cc1cccc2c(=O)[nH]c(-c3ccc(CN4CCNC(C)C4)cc3)cc12 (stereo not shown) [IQ-084-3] | < 50 nM | – | –
41 | Cc1cccc2c(=O)[nH]c(-c3cnc(N4CCN(C(=O)OC(C)(C)C)CC4)c(F)c3)cc12 [IQ-020] | < 500 nM | – | –
42 | Cc1cccc2c(=O)[nH]c(-c3ccc(S(=O)(=O)N(C)C)cc3)cc12 [IQ-108] | < 50 nM | – | –
43 | Cc1cccc2c(=O)[nH]c(-c3ccc(CN4CCC5(CCN(C)C5)C4)cc3)cc12 (stereo not shown) [IQ-088] | < 20 nM | – | –
44 | Cc1cccc2c(=O)[nH]c(-c3ccc(Cn4ccnc4)cc3)cc12 [IQ-180] | < 20 nM | – | –
45 | Cc1cccc2c(=O)[nH]c(-c3ccc(CCN4CCCC4)cc3)cc12 [IQ-041] | < 500 nM | – | –
46 | Cc1cc(F)cc2c(=O)[nH]c(-c3ccc(C(=O)N4CCN(CCO)CC4)cc3)cc12 [IQ-192] | < 20 nM | – | –
47 | Cc1cccc2c(=O)[nH]c(-c3ccc(C(=O)N(C)C4CCNC4)cc3)cc12 (stereo not shown) [IQ-200] | < 20 nM | – | –
48 | Cc1cccc2c(=O)[nH]c(-c3ccc(CN4CCCC4)c(F)c3)cc12 [IQ-039] | < 500 nM | – | –
49 | Cc1cc(F)cc2c(=O)[nH]c(-c3ccc(C(=O)N(C)C4CCN(C)CC4)cc3)cc12 [IQ-195] | < 20 nM | – | –
50 | Cc1cccc2c(=O)[nH]c(-c3ccc(CN4CC(C)(O)C4)cc3)cc12 [IQ-172] | < 20 nM | – | –

Row | Compound | IC50 [1] | IC50 [2, 3] | IC50 ([2]; read-out: Wnt IC50)
51 | Cc1cccc2c(=O)[nH]c(-c3ccc(N4CCN(C5CC5)CC4)nc3)cc12 [IQ-004] | < 20 nM | – | –
52 | CN(C)C1CCN(c2ccc(-c3cc4c(Cl)cccc4c(=O)[nH]3)cn2)CC1 [IQ-007] | < 50 nM | – | –
53 | O=c1[nH]c(-c2ccc(CN3CCNCC3)cc2)cc2c(F)ccc(F)c12 [IQ-079] | < 500 nM | – | –
54 | Cc1cccc2c(=O)[nH]c(-c3ccc(C(=O)N(C)C4CN(C)C4)cc3)cc12 [IQ-199] | < 20 nM | – | –
55 | CC(C)(C)OC(=O)N1CCN(Cc2ccc(-c3cc4c(F)cc(F)cc4c(=O)[nH]3)cc2)CC1 [IQ-154] | < 500 nM | – | –
56 | Cc1cccc2c(=O)[nH]c(-c3ccc(Cn4cncn4)cc3)cc12 [IQ-171] | < 50 nM | – | –
57 | Cc1cccc2c(=O)[nH]c(-c3ccc(C(=O)N4CCN(C)CC4)cc3)cc12 [IQ-104] | < 20 nM | – | –
58 | Cc1ccc(S(=O)(=O)N2CCN(C(C)(C)c3ccc(-c4cc5c(C)cccc5c(=O)[nH]4)cc3)CC2)cc1 [IQ-148] | < 500 nM | – | –
59 | Cc1cccc2c(=O)[nH]c(-c3ccc(Cn4ccnc4C)cc3)cc12 [IQ-168] | < 20 nM | – | –
60 | CNC1CN(Cc2ccc(-c3cc4c(C)cc(F)cc4c(=O)[nH]3)cc2)C1 [IQ-178] | < 20 nM | – | –
61 | CC(=O)N1CCN(Cc2ccc(-c3cc4c(Cl)cccc4c(=O)[nH]3)cc2)CC1 [IQ-045] | < 50 nM | – | –
62 | COCCN(CCOC)C(=O)c1ccc(-c2cc3c(C)cccc3c(=O)[nH]2)cc1 [IQ-187] | < 50 nM | – | –
63 | COCC#Cc1cccc2c(=O)[nH]c(-c3ccc(OCCN(C)C)cc3)cc12 [IQ-234] | < 500 nM | – | –
64 | Cc1cccc2c(=O)[nH]c(-c3ccc(C(=O)N(C)CC4CCN(C)C4)cc3)cc12 (stereo not shown) [IQ-204] | < 20 nM | – | –
65 | Cc1cc(F)cc2c(=O)[nH]c(-c3ccc(C(=O)N(C)C4CCCN(C)C4)cc3)cc12 (stereo not shown) [IQ-212] | < 50 nM | – | –
66 | Cc1cccc2c(=O)[nH]c(-c3ccc(C(=O)N(C)Cc4nccn4C)cc3)cc12 [IQ-198] | < 20 nM | – | –
67 | Cc1cccc2c(=O)[nH]c(-c3ccc(S(=O)(=O)N4CCN(C(=O)OC(C)(C)C)CC4)cc3)cc12 [IQ-140] | < 500 nM | – | –
68 | O=c1[nH]c(-c2ccc(N3CCNCC3)cc2)cc2c(Cl)cccc12 [IQ-014] | < 20 nM | – | –
69 | Cc1cccc2c(=O)[nH]c(-c3ccc(C(=O)N4CCOCC4)cc3)cc12 [IQ-107] | < 20 nM | – | –
70 | Cc1cccc2c(=O)[nH]c(-c3ccc(CN4CCNCC4)c(F)c3)cc12 [IQ-059] | < 50 nM | – | –
71 | Cc1cccc2c(=O)[nH]c(-c3ccc(C(=O)N(C)C4CCN(C)C4)cc3)cc12 (single isomer, unassigned) [IQ-205-2] | < 20 nM | – | –
72 | Cc1cccc2c(=O)[nH]c(-c3ccc(N4CCNCC4)cc3)cc12 [IQ-016] | < 500 nM and < 50 nM and < 20 nM and 12 nM | – | –
73 | Cc1cccc2c(=O)[nH]c(-c3ccc(CN4CCN(C5CC5)CC4)cc3)cc12 [IQ-050] | < 50 nM | – | –
